Patent publication US6399542B1, “Alkoxyimino-substituted bicyclic compounds compositions containing the same and method of making such compounds” (Agro-Kanesho Co., Ltd., priority 1997, dated 2002)
Where two headings read alike, the source gives them in different places.

Key:
Botrytis cinerea = assay: Effect on Cucumber gray mold (cotyledon paper disc test); type: in vivo; conditions: 3 days after inoculation
[1] = system: Psecidoperonospora cubensis; assay: Effect on Cucumber downy mildew (preventive spray test); type: in vivo; conditions: 7 days after inoculation
Puccinia recondita = assay: Effect on Wheat brown rust (preventive spray test); type: in vivo; conditions: 7 days after inoculation
Puccinia recondite = assay: Penetration and translocation in wheat leaves (covered leaf tip, brown rust); type: in vivo
Rhizoctonia solani = assay: Effect on Rice sheath blight (preventive spray test); conditions: 10 days after inoculation
Protocol: An emulsion of a compound of the present invention prepared in Preparation Example 2 was diluted with water and uniformly sprayed on 5 rice plant seedlings (variety: Koshihikari) in 4.5-leaf stage in each plastic pot having a diameter of 6 cm, with a spray gun. One day after the spraying, the seedlings were bundled at the second sheath with a string. Colonies of Rhizoctonia solani previously cultured in PSA culture medium were bored with a cork borer to obtain pieces having a diameter of 4 mm. The piece was put in the bundle, and kept in a high-humidity room at 25° C. until the examination. Ten days after the inoculation, the degree of the disease was examined, and the preventive rate (effect of inhibiting the disease) was calculated on the basis of the following standard:
Preventive rate=[1-D′/C′]×100
C′: Severity in untreated section
D′: Severity in treated section.

Pyricularia oryzae = type: in vivo; conditions: Rice blast, 7 days after inoculation
Chochliobolus miyabeanus = assay: Effect on Rice brown spot (preventive spray test); type: in vivo; conditions: 7 days after inoculation
[2] = system: Pseudoperonospora cubenis; assay: Penetration and translocation in cucumber leaf (drop on back of leaf, downy mildew); type: in vivo; conditions: 10 μl drop on back of leaf, conc. of active ingredient 200 ppm, disease-free area 5 days after the spraying
Protocol: Four points were marked at random on the first leaf of each cucumber seedling (variety: Shogoin aonaga fushinari) in two-leaf stage in each pot having a diameter of 6 cm. […] The leaf was kept in a greenhouse for one day and then uniformly inoculated with a zoospore suspension of Pseudoperonospora cubenis by means of a spray gun, then left to stand in a high-humidity room at 24° C. for 24 hours, and kept in a greenhouse. The area of the disease-free part 5 days after the spraying was represented in terms of the index.
3: At least 40% of the area of the leaf was free from the disease.
2: 20 to 40% of the area of the leaf was free from the disease.
1: An area larger than the spot of the drop but smaller than 20% of the area of the leaf was free from the disease.
0: Only the spot of the drop was free from the disease.

Phytophthora infestans = type: in vivo; conditions: Tomato late blight, 5 days after inoculation
Erysiphe graminis = assay: Effects on Barley powdery mildew (preventive spray test); type: in vivo; conditions: lesions counted seven days after inoculation
[3] = conc. of active ingredient 20 ppm
[4] = conc. of active ingredient 100 ppm
[5] = conc. of active ingredient 200 ppm
[6] = conc. of active ingredient 4 ppm

SMILES	Preventive rate (%) (Botrytis cinerea; [3])	Preventive rate (%) (Botrytis cinerea; [4])	Preventive rate (%) [1, 3] [%]	Preventive rate (%) [1, 4] [%]	Preventive rate (%) (Puccinia recondita; [3])	Preventive rate (%) (Puccinia recondita; [4])	melting point [°C]	Number of lesions formed within the mark to the tip (Puccinia recondite; [5])	Preventive rate (%) (Puccinia recondite; [5])	Rate of the translocation perfect preventive conc. (%) (Puccinia recondite; [5])	Preventive rate (%) (Rhizoctonia solani; [3])	Preventive rate (%) (Rhizoctonia solani; [4])	Preventive rate (%) (Pyricularia oryzae; [3])	Preventive rate (%) (Pyricularia oryzae; [4])	Preventive rate (%) (Chochliobolus miyabeanus; [3])	Preventive rate (%) (Chochliobolus miyabeanus; [4])	Preventive rate (%) (Phytophthora infestans; [3])	Preventive rate (%) (Phytophthora infestans; [4])	Preventive rate (%) (Erysiphe graminis; [3])	Preventive rate (%) (Erysiphe graminis; [4])	other results
CON=C1COc2cc(OCc3ccccc3N(OC)C(=O)OC)ccc21 [a-7, methyl N-[2-(3-methoxyimino-2,3-dihydro-benzofuran-6-yloxymethyl)-phenyl]-N-methoxycarbamate]	56	97	94	97	99	100	102 to 103														
CNC(=O)C(=NOC)c1ccccc1COc1ccc2c(c1)OCCC2=NOC [c-5]			100	100	96	100		0	100	100	39	89	97	99	35	100	88	94			Index [2]: 3 (At least 40% of the area of the leaf was free from the disease.)
CNC(=O)/C(=N/OC)c1ccccc1COc1cc2c(cc1C)C(=NOC)CO2 [a-27]					100	100		0	100	100			77	82	77	83	95	95	100	100	Preventive rate (%) (Erysiphe graminis; [6]): 100%; Preventive rate (%) (Phytophthora infestans; [6]): 95%; Preventive rate (%) (Puccinia recondita; [6]): 98%
CNC(=O)/C(=N/OC)c1ccccc1COc1ccc2c(c1C)OCC2=NOC [a-16]	84	87	100	100	100	100		0	100	100	50	92	89	96	95	98	97	100	100	100	Preventive rate (%) (Botrytis cinerea; [6]): 42%; Preventive rate (%) (Pyricularia oryzae; [6]): 86%; Preventive rate (%) (Chochliobolus miyabeanus; [6]): 75%; Index [2]: 3 (At least 40% of the area of the leaf was free from the disease.); Preventive rate (%) (Phytophthora infestans; [6]): 91%; Preventive rate (%) [1, 6]: 100%; Preventive rate (%) (Puccinia recondita; [6]): 100%
CNC(=O)N(OC)c1ccccc1COc1ccc2c(c1)OCC2=NOC [a-8, N-[2-(3-methoxyimino-2,3-dihydrobenzofuran-6-yloxymethyl)phenyl]-N-methoxy-N′-methylurea]			88	94	99	100	109 to 112														Preventive rate (%) [1, 6]: 75%
CON=C1COc2cc(OCc3ccccc3/C(=N\OC)C(=O)OC)ccc21 [a-4, (E) methyl methoxyimino-[2-(3-methoxyimino-2,3-dihydrobenzofuran-6-yloxymethyl)-phenyl]acetate]			94	94	94	98	108 to 110				93	92	86	90	75	80			93	100	
CNC(=O)C(=NOC)c1ccccc1COc1cc2c(cc1C)C(=NOC)CC2 [e-27]			100	100	100	100									99	99	100	100	99	100	Number of lesions formed within the mark to the tip (Puccinia recondite; [4]): 0; Preventive rate (%) (Puccinia recondite; [4]): 100%; Rate of the translocation perfect preventive conc. (%) (Puccinia recondite; [4]): 100%; Preventive rate (%) (Erysiphe graminis; [6]): 99%; Preventive rate (%) (Chochliobolus miyabeanus; [6]): 96%; Preventive rate (%) (Phytophthora infestans; [6]): 100%; Preventive rate (%) [1, 6]: 100%; Preventive rate (%) (Puccinia recondita; [6]): 100%
CCON=C1COc2cc(OCc3ccccc3/C(=N\OC)C(=O)NC)ccc21 [a-37, (E) methoxyimino-[2-(3-ethoxyimino-2,3-dihydrobenzofuran-6-yloxymethyl)-phenyl]-N-methyl-acetamide]	100	100	100	100	99	100	110 to 113														
CNC(=O)C(=NOC)c1ccccc1COc1ccc2c(c1)CCC2=NOC [e-5]			100	100	99	100		0	100	100			97	100	84	90	95	98	95	100	Index [2]: 3 (At least 40% of the area of the leaf was free from the disease.)
COC=C(C(=O)OC)c1ccccc1COc1ccc2c(c1C)OCCC2=NOC [c-13]	49	58	100	100	100	100							94	100	93	100	100	100	100	100	Number of lesions formed within the mark to the tip (Puccinia recondite; [4]): 0; Preventive rate (%) (Puccinia recondite; [4]): 100%; Rate of the translocation perfect preventive conc. (%) (Puccinia recondite; [4]): 100%; Preventive rate (%) (Erysiphe graminis; [6]): 100%; Preventive rate (%) (Chochliobolus miyabeanus; [6]): 82%; Preventive rate (%) (Phytophthora infestans; [6]): 95%; Preventive rate (%) [1, 6]: 100%; Preventive rate (%) (Puccinia recondita; [6]): 100%
CNC(=O)/C(=N/OC)c1ccccc1COc1ccc2c(c1)OCC2=NOC [a-5, (E) methoxyimino-[2-(3-methoxyimino-2,3-dihydro-benzofuran-6-yloxymethyl)phenyl]-N-methyl-acetamide]			88	94	100	100	143 to 145	0	100	100	70	84	90	96	89	96	97	100	95	100	Index [2]: 3 (At least 40% of the area of the leaf was free from the disease.)
